{"source": "patent US11390604B2", "about": "(Hoffmann-La Roche Inc., priority 2019, dated 2022)", "note": "Where a name gives a salt, the structure may show the parent alone.", "data": [{"system": "Acinetobacter baumannii ATCC 17961", "test": "Antimicrobial susceptibility testing: 90% growth inhibitory concentration (IC90) determination", "type": "cell-based", "conditions": "ATCC17961, Acinetobacter baumannii ATCC 17961, Iso-Sensitest broth, read-out: ATCC 17961 IC90", "how_it_was_run": "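Broth microdilution in Iso-Sensitest medium, twofold series (e.g. 50 to 0.097 μM final), ~5×10^5 CFU/ml inoculum, 35±2 °C. OD600 read every 20 min over 16 h. IC90 derived from growth inhibition during logarithmic phase.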", "units": {"IC90": "nM"}, "values": [{"smiles": "Cn1c(-c2cn(CC#N)nc2C(F)(F)F)cnc1C(=O)Nc1ccc(C(=O)N[C@H]2C[C@@H](NC(=O)[C@H]3CC[C@@H](N)C3)C2)c(Cl)c1", "note": "[Example 96, N-[4-[[3-[[(1S,3R)-3-aminocyclopentanecarbonyl]amino]cyclobutyl]carbamoyl]-3-chlorophenyl]-5-[1-(cyanomethyl)-3-(trifluoromethyl)pyrazol-4-yl]-1-methylimidazole-2-carboxamide;2,2,2-trifluoroacetic acid]", "IC90": 498}, {"smiles": "Cn1c(-c2cn(C3CC3)nc2C(F)(F)F)cnc1C(=O)Nc1ccc(C(=O)N[C@H]2C[C@@H](N)C2)c(Cl)c1", "note": "[Example 97, N-[4-[(3-aminocyclobutyl)carbamoyl]-3-chlorophenyl]-5-[1-cyclopropyl-3-(trifluoromethyl)pyrazol-4-yl]-1-methylimidazole-2-carboxamide]", "IC90": 595}, {"smiles": "Cn1c(-c2cn(CCC(F)(F)F)nc2C(F)(F)F)cnc1C(=O)Nc1ccc(C(=O)N2CCN(C(=O)C3CCNCC3)CC2)c(Cl)c1", "note": "[Example 98, N-[3-chloro-4-[4-(piperidine-4-carbonyl)piperazine-1-carbonyl]phenyl]-1-methyl-5-[3-(trifluoromethyl)-1-(3,3,3-trifluoropropyl)pyrazol-4-yl]imidazole-2-carboxamide;hydrochloride]", "IC90": 362}, {"smiles": "Cn1c(-c2cn(CF)nc2C(F)(F)F)cnc1C(=O)Nc1ccc(C(=O)N2CCN(C(=O)C3CCNCC3)CC2)c(Cl)c1", "note": "[Example 99, N-[3-chloro-4-[4-(piperidine-4-carbonyl)piperazine-1-carbonyl]phenyl]-5-[1-(fluoromethyl)-3-(trifluoromethyl)pyrazol-4-yl]-1-methylimidazole-2-carboxamide;hydrochloride]", "IC90": 403}, {"smiles": "Cn1c(-c2cn(Cc3ccn[nH]3)nc2C(F)(F)F)cnc1C(=O)Nc1ccc(C(=O)N2CCN(C(=O)C3CCNCC3)CC2)c(Cl)c1", "note": "[Example 100, N-[3-chloro-4-[4-(piperidine-4-carbonyl)piperazine-1-carbonyl]phenyl]-1-methyl-5-[1-(1H-pyrazol-5-ylmethyl)-3-(trifluoromethyl)pyrazol-4-yl]imidazole-2-carboxamide]", "IC90": 1030}, {"smiles": "Cn1c(-c2cn(CC(C)(CO)CCl)nc2C(F)(F)F)cnc1C(=O)Nc1ccc(C(=O)N2CCN(C(=O)C3CCNCC3)CC2)c(Cl)c1", "note": "(stereo not shown) [Example 101, 5-[1-[2-(chloromethyl)-3-hydroxy-2-methylpropyl]-3-(trifluoromethyl)pyrazol-4-yl]-N-[3-chloro-4-[4-(piperidine-4-carbonyl)piperazine-1-carbonyl]phenyl]-1-methylimidazole-2-carboxamide;formic acid]", "IC90": 733}, {"smiles": "CC(C)n1cc(-c2cnc(C(=O)Nc3ccc(C(=O)N4CCN(C(=O)C5CCNCC5)CC4)c(Cl)c3)n2C)c(C(F)(F)F)n1", "note": "[Example 102, N-[3-chloro-4-[4-(piperidine-4-carbonyl)piperazine-1-carbonyl]phenyl]-1-methyl-5-[1-propan-2-yl-3-(trifluoromethyl)pyrazol-4-yl]imidazole-2-carboxamide;hydrochloride]", "IC90": 448}, {"smiles": "Cn1c(-c2cn(C(CO)CCl)nc2C(F)(F)F)cnc1C(=O)Nc1ccc(C(=O)N2CCN(C(=O)C3CCNCC3)CC2)c(Cl)c1", "note": "(stereo not shown) [Example 103, 5-[1-(1-chloro-3-hydroxypropan-2-yl)-3-(trifluoromethyl)pyrazol-4-yl]-N-[3-chloro-4-[4-(piperidine-4-carbonyl)piperazine-1-carbonyl]phenyl]-1-methylimidazole-2-carboxamide;hydrochloride]", "IC90": 678}, {"smiles": "Cn1c(-c2cn(CCC(C)(C)O)nc2C(F)(F)F)cnc1C(=O)Nc1ccc(C(=O)N2CCN(C(=O)C3CCNCC3)CC2)c(Cl)c1", "note": "[Example 104, N-[3-chloro-4-[4-(piperidine-4-carbonyl)piperazine-1-carbonyl]phenyl]-5-[1-(3-hydroxy-3-methylbutyl)-3-(trifluoromethyl)pyrazol-4-yl]-1-methylimidazole-2-carboxamide;hydrochloride]", "IC90": 1020}, {"smiles": "Cn1c(-c2cn(CC3(CO)CC(C)(Cl)C3)nc2C(F)(F)F)cnc1C(=O)Nc1ccc(C(=O)N2CCN(C(=O)C3CCNCC3)CC2)c(Cl)c1", "note": "(stereo not shown) [Example 105, 5-[1-[[3-chloro-1-(hydroxymethyl)-3-methylcyclobutyl]methyl]-3-(trifluoromethyl)pyrazol-4-yl]-N-[3-chloro-4-[4-(piperidine-4-carbonyl)piperazine-1-carbonyl]phenyl]-1-methylimidazole-2-carboxamide;hydrochloride]", "IC90": 1610}, {"smiles": "Cc1nc(Cn2cc(-c3cnc(C(=O)Nc4ccc(C(=O)N5CCN(C(=O)C6CCNCC6)CC5)c(Cl)c4)n3C)c(C(F)(F)F)n2)no1", "note": "[Example 106, N-[3-chloro-4-[4-(piperidine-4-carbonyl)piperazine-1-carbonyl]phenyl]-1-methyl-5-[1-[(5-methyl-1,2,4-oxadiazol-3-yl)methyl]-3-(trifluoromethyl)pyrazol-4-yl]imidazole-2-carboxamide;hydrochloride]", "IC90": 848}, {"smiles": "Cn1c(-c2cn(CC3(C)CSC3)nc2C(F)(F)F)cnc1C(=O)Nc1ccc(C(=O)N2CCN(C(=O)C3CCNCC3)CC2)c(Cl)c1", "note": "[Example 107, N-[3-chloro-4-[4-(piperidine-4-carbonyl)piperazine-1-carbonyl]phenyl]-1-methyl-5-[1-[(3-methylthietan-3-yl)methyl]-3-(trifluoromethyl)pyrazol-4-yl]imidazole-2-carboxamide;hydrochloride]", "IC90": 444}, {"smiles": "Cn1c(-c2cn(C3CC4(CC4)C3)nc2C(F)(F)F)cnc1C(=O)Nc1ccc(C(=O)N2CCN(C(=O)C3CCNCC3)CC2)c(Cl)c1", "note": "[Example 108, N-[3-chloro-4-[4-(piperidine-4-carbonyl)piperazine-1-carbonyl]phenyl]-1-methyl-5-[1-spiro[2.3]hexan-5-yl-3-(trifluoromethyl)pyrazol-4-yl]imidazole-2-carboxamide;hydrochloride]", "IC90": 248}, {"smiles": "Cn1c(-c2cn(CCOC(F)F)nc2C(F)(F)F)cnc1C(=O)Nc1ccc(C(=O)N2CCN(C(=O)C3CCNCC3)CC2)c(Cl)c1", "note": "[Example 109, N-[3-chloro-4-[4-(piperidine-4-carbonyl)piperazine-1-carbonyl]phenyl]-5-[1-[2-(difluoromethoxy)ethyl]-3-(trifluoromethyl)pyrazol-4-yl]-1-methylimidazole-2-carboxamide;hydrochloride]", "IC90": 473}, {"smiles": "Cn1c(-c2cn(CC3CC3(F)F)nc2C(F)(F)F)cnc1C(=O)Nc1ccc(C(=O)N2CCN(C(=O)C3CCNCC3)CC2)c(Cl)c1", "note": "(stereo not shown) [Example 110, N-[3-chloro-4-[4-(piperidine-4-carbonyl)piperazine-1-carbonyl]phenyl]-5-[1-[(2,2-difluorocyclopropyl)methyl]-3-(trifluoromethyl)pyrazol-4-yl]-1-methylimidazole-2-carboxamide;hydrochloride]", "IC90": 260}, {"smiles": "Cn1c(-c2cn(CC3CC(F)(F)C3)nc2C(F)(F)F)cnc1C(=O)Nc1ccc(C(=O)N2CCN(C(=O)C3CCNCC3)CC2)c(Cl)c1", "note": "[Example 111, N-[3-chloro-4-[4-(piperidine-4-carbonyl)piperazine-1-carbonyl]phenyl]-5-[1-[(3,3-difluorocyclobutyl)methyl]-3-(trifluoromethyl)pyrazol-4-yl]-1-methylimidazole-2-carboxamide;hydrochloride]", "IC90": 344}, {"smiles": "Cn1c(-c2cn(CC3CC3)nc2C(F)(F)F)cnc1C(=O)Nc1ccc(C(=O)N2CCN(C(=O)C3CCNCC3)CC2)c(Cl)c1", "note": "[Example 112, N-[3-chloro-4-[4-(piperidine-4-carbonyl)piperazine-1-carbonyl]phenyl]-5-[1-(cyclopropylmethyl)-3-(trifluoromethyl)pyrazol-4-yl]-1-methylimidazole-2-carboxamide;hydrochloride]", "IC90": 274}, {"smiles": "Cn1c(-c2cn(CC3CCC3)nc2C(F)(F)F)cnc1C(=O)Nc1ccc(C(=O)N2CCN(C(=O)C3CCNCC3)CC2)c(Cl)c1", "note": "[Example 113, N-[3-chloro-4-[4-(piperidine-4-carbonyl)piperazine-1-carbonyl]phenyl]-5-[1-(cyclobutylmethyl)-3-(trifluoromethyl)pyrazol-4-yl]-1-methylimidazole-2-carboxamide;hydrochloride]", "IC90": 187}, {"smiles": "CCn1cc(-c2cnc(C(=O)Nc3ccc(C(=O)N4CCN(C(=O)C5CCNCC5)CC4)c(Cl)c3)n2C)c(C(F)(F)F)n1", "note": "[Example 114, N-[3-chloro-4-[4-(piperidine-4-carbonyl)piperazine-1-carbonyl]phenyl]-5-[1-ethyl-3-(trifluoromethyl)pyrazol-4-yl]-1-methylimidazole-2-carboxamide;hydrochloride]", "IC90": 339}, {"smiles": "Cn1cc(-c2cnc(C(=O)Nc3ccc(C(=O)N4CCN(C(=O)C5CCNCC5)CC4)c(Cl)c3)n2C)c(C(F)(F)F)n1", "note": "[Example 115, N-[3-chloro-4-[4-(piperidine-4-carbonyl)piperazine-1-carbonyl]phenyl]-1-methyl-5-[1-methyl-3-(trifluoromethyl)pyrazol-4-yl]imidazole-2-carboxamide;hydrochloride]", "IC90": 1250}, {"smiles": "Cn1c(-c2cn(C(F)F)nc2C(F)(F)F)cnc1C(=O)Nc1ccc(C(=O)N2CCN(C(=O)C3CCNCC3)CC2)c(Cl)c1", "note": "[Example 116, N-[3-chloro-4-[4-(piperidine-4-carbonyl)piperazine-1-carbonyl]phenyl]-5-[1-(difluoromethyl)-3-(trifluoromethyl)pyrazol-4-yl]-1-methylimidazole-2-carboxamide;hydrochloride]", "IC90": 487}, {"smiles": "CC(C#N)n1cc(-c2cnc(C(=O)Nc3ccc(C(=O)N4CCN(C(=O)C5CCNCC5)CC4)c(Cl)c3)n2C)c(C(F)(F)F)n1", "note": "(stereo not shown) [Example 117, N-[3-chloro-4-[4-(piperidine-4-carbonyl)piperazine-1-carbonyl]phenyl]-5-[1-(1-cyanoethyl)-3-(trifluoromethyl)pyrazol-4-yl]-1-methylimidazole-2-carboxamide;formic acid]", "IC90": 427}]}]}
